Measurements: article PMC2937036 (PLoS ONE, 2010)
“Also recorded” adds a separate entry of the source. Where a SMILES comes first, the peptide text is derived from it. Bridges are numbered along the chain shown (N, C = ends).

What was measured:
[1] = test system: Staphylococcus aureus 42D; assay: Bactericidal assay (LD99.9), S. aureus; assay type: cell-based; settings: 10 mM phosphate buffer pH 7.0 with 1% TSB, 2 h, 37°C
Method: (§1) The peptides were tested for microbicidal activities against Bacillus subtilis ATCC6633, Escherichia coli ML35, and Staphylococcus aureus 42D as previously described. Suspensions of logarithmically growing test bacteria were incubated on a microtiter plate at a concentration of 10^5 colony-forming units/mL with various peptide dilutions. The medium was 100 µL of 10 mM phosphate buffer pH 7.0 supplemented with 1% (v/v) of tryptic soy broth (TSB). For later assays, human male serum was also added to a final concentration of 25%. 10 µL aliquots were collected at time 0 h and after 2 h of incubation on a rotary shaker (300 rpm) at 37°C. These were plated on blood agar plates and incubated overnight at 37°C. The Lethal Dose concentration (LD99.9) was determined, corresponding to the concentration killing >99.9% of the inoculum at 2 h. These experiments were performed in duplicate.
(§2) For the testing of the peptides' activities in different conditions, e.g. with serum, we use the same cut-off for activity as defined for Minimum Bactericidal Concentration (MBC), i.e. a 1000-fold reduction of the inoculum. However, we designate this peptide concentration with the more general term LD99.9 which can be applied to the specified conditions of the experiments performed here.

in vitro = settings: 25% human male serum; for half-life at 5 µM / remaining at 6.5 h, 5 µM / remaining at 24 h, 5 µM: male, human; for intact peptide after 2 h: 37°C
Method: To investigate the effects of the modifications on proteolytic susceptibility, the disappearance of the intact peptides incubated in diluted human serum at 37°C was followed by RP-HPLC. […] Incubations were normally done for 9 h and, in some cases, longer.
Peptide stabilities were assayed in diluted serum as previously described. 25% human male serum was centrifuged at 13,000 rpm for 10 min to remove lipids and the supernatant was collected and incubated at 37°C for at least 15 min. The assay was initiated upon the addition of the test peptide to the serum for a final peptide concentration of 5 µM. 200 µL aliquots of the incubations were taken for the following time points: 0, 30, 75, 120, 240, 390 and 540 min. The aliquots were mixed with 40 µL of 15% trichloroacetic acid (TCA) and incubated at 4°C for at least 15 min to precipitate serum proteins. In the case of Com5 and Com6, 5 µL of 1 M NaOH was supplemented to the TCA to prevent peptide precipitation. The supernatant was collected for each sample after centrifugation at 13,000 rpm for 10 min and stored at −20°C. These assays were performed in triplicate.
Reverse phase high performance liquid chromatography (RP-HPLC) analysis was performed with an AKTA Purifier from Amersham Biosciences (Westborough, MA) using an uRPC C2/C18 ST 4.6/100 column from Pharmacia Biotech (SanJose, CA) of the following dimensions: bed length 100 mm, i.d. 4.6 mm, 120Å. Individually thawed samples were injected through a 100 µL loop, after which a linear gradient was run from 100% solution A (0.05% trifluoroacetic acid (TFA) in filtered water) to 100% solution B (0.045% TFA in 90% acetonitrile) with a flow rate at 0.5 mL/min. The relative concentrations of the remaining soluble peptides were analyzed by the integration of the absorbance at 215 nm as a function of retention time using the Analysis module of the Unicorn software package.

[2] = test system: Bacillus subtilis ATCC6633; assay: Bactericidal assay (LD99.9), B. subtilis; assay type: cell-based; settings: 10 mM phosphate buffer pH 7.0 with 1% TSB, 2 h, 37°C
Method: as §1, §2

Escherichia coli ML35 = assay: Bactericidal assay (LD99.9), E. coli; assay type: cell-based; settings: 10 mM phosphate buffer pH 7.0 with 1% TSB, 2 h, 37°C
Method: as §1, §2

[3] = test system: Staphylococcus aureus 42D; assay: Bactericidal assay (LD99.9), S. aureus in 25% human serum; assay type: cell-based; settings: unit not given (Table 3 uses µM)
Method: In order to be able to make a direct comparison with our serum stability measurements, a few peptides were selected to be tested for antimicrobial activity in 25% human serum (Table 4). […] All LD99.9 values are higher compared to the initial assays in 10 mM sodium phosphate buffer. Contributing factors to this general loss in activity could be the increased ionic concentration, interactions with serum components such as albumin or other proteins, and peptide degradation. Both hexamers with unprotected termini, Lfc1 and Com1, are no longer active while the cyclized short peptides remained fairly antimicrobial. In human serum, Lfc5 and Lfc6 are equally anti-staphylococcal. This reflects a greater loss of activity for Lfc6, but also coincides with the lower serum stability that this peptide has compared to Lfc5 (Fig. 2C). The activities of the cyclized Com peptides were all lowered equally with a 16-fold increase in LD99.9 values compared to activities in serum-excluded media and this agrees with their similar stability profiles (Fig. 2D).
as §1, §2

25% human male serum = settings: 37°C, up to 540 min
[4] = design: method as in PMID 15853943; settings: ITC; cited from earlier work

Compound	99.9% Lethal Dose Concentration (LD99.9) S. aureus [1]	half-life at 5 µM (in vitro)	99.9% Lethal Dose Concentration (LD99.9) B. subtilis [2]	99.9% Lethal Dose Concentration (LD99.9) E. coli (Escherichia coli ML35)	LD99.9 anti-S. aureus in 25% human serum [3]	fragment found (25% human male serum)	other results
CC(=O)N[C@@H](CCCNC(=N)N)C(=O)N[C@@H](CCCNC(=N)N)C(=O)N[C@@H](Cc1c[nH]c2ccccc12)C(=O)N[C@@H](CCC(N)=O)C(=O)N[C@@H](Cc1c[nH]c2ccccc12)C(=O)N[C@@H](CCCNC(=N)N)C(N)=O [Lfc4, CH3CO-RRWQWR-NH2] (Ac-RRWQWR-NH2)	60 µM	~90 min	3.8 µM	15 µM			
N=C(N)NCCC[C@H](NC(=O)[C@H](Cc1c[nH]c2ccccc12)NC(=O)[C@H](CCC(N)=O)NC(=O)[C@H](Cc1c[nH]c2ccccc12)NC(=O)[C@H](CCCNC(=N)N)NC(=O)[C@@H](N)CCCNC(=N)N)C(=O)O [Lfc1, RRWQWR] (H-RRWQWR-OH)	30 µM	< 30 min	7.5 µM	60 µM	>120		intact peptide after 2 h (in vitro): completely gone
CC(=O)N[C@@H](CCCNC(=N)N)C(=O)N[C@@H](CCCNC(=N)N)C(=O)N[C@@H](Cc1c[nH]c2ccccc12)C(=O)N[C@@H](CCC(N)=O)C(=O)N[C@@H](Cc1c[nH]c2ccccc12)C(=O)N[C@@H](CCCNC(=N)N)C(=O)O [Lfc3, CH3CO-RRWQWR] (Ac-RRWQWR-OH)	>120 µM	~60 min	60 µM	120 µM			intact peptide after 2 h (in vitro): almost fully degraded
Ac-RRWQWR-OH						CH3CO-RRWQ, 75 min; also recorded: CH3CO-RRW, 75 min	
Ac-RRWWRF-NH2						CH3CO-RRWW, 75 min; also recorded: CH3CO-RRW, 75 min	
CC(=O)N[C@@H](CCCNC(=N)N)C(=O)N[C@@H](CCCNC(=N)N)C(=O)N[C@@H](Cc1c[nH]c2ccccc12)C(=O)N[C@@H](Cc1c[nH]c2ccccc12)C(=O)N[C@@H](CCCNC(=N)N)C(=O)N[C@@H](Cc1ccccc1)C(=O)O [Com3, CH3CO-RRWWRF] (Ac-RRWWRF-OH)	30 µM	~60 min	7.5 µM	120 µM			intact peptide after 2 h (in vitro): almost fully degraded
N=C(N)NCCC[C@@H]1NC(=O)[C@H](CCCNC(=N)N)NC(=O)[C@H](Cc2ccccc2)NC(=O)[C@H](CCCNC(=N)N)NC(=O)[C@H](Cc2c[nH]c3ccccc23)NC(=O)[C@H](Cc2c[nH]c3ccccc23)NC1=O [Com5, -RRWWRF-] (cyclo(RRWWRF))	7.5 µM		≤0.45 µM	30 µM	30		remaining at 6.5 h, 5 µM (in vitro): > 70%; remaining at 24 h, 5 µM (in vitro): ~50%
N=C(N)NCCC[C@@H]1NC(=O)[C@H](CCCNC(=N)N)NC(=O)[C@H](Cc2c[nH]c3ccccc23)NC(=O)[C@H](CCC(N)=O)NC(=O)[C@H](Cc2c[nH]c3ccccc23)NC(=O)[C@H](CCCNC(=N)N)NC1=O [Lfc5, -RRWQWR-] (cyclo(RRWQWR))	7.5 µM		1.9 µM	7.5 µM	60		remaining at 6.5 h, 5 µM (in vitro): > 70%; remaining at 24 h, 5 µM (in vitro): ~50%
N=C(N)NCCC[C@H](NC(=O)[C@H](Cc1c[nH]c2ccccc12)NC(=O)[C@H](Cc1c[nH]c2ccccc12)NC(=O)[C@H](CCCNC(=N)N)NC(=O)[C@@H](N)CCCNC(=N)N)C(=O)N[C@@H](Cc1ccccc1)C(=O)O [Com1, RRWWRF] (H-RRWWRF-OH)	7.5 µM	< 30 min	1.9 µM	60 µM	>120		intact peptide after 2 h (in vitro): completely gone
N=C(N)NCCC[C@@H]1NC(=O)[C@H](Cc2c[nH]c3ccccc23)NC(=O)[C@H](CCC(N)=O)NC(=O)[C@H](Cc2c[nH]c3ccccc23)NC(=O)[C@H](CCCNC(=N)N)NC(=O)[C@H](CCCNC(=N)N)NC(=O)[C@@H](N)CSSC[C@@H](C(N)=O)NC1=O [Lfc6, CRRWQWRC-NH2] (H-CRRWQWRC-NH2; disulfide 1-8)					60		
N=C(N)NCCC[C@@H]1NC(=O)[C@H](Cc2c[nH]c3ccccc23)NC(=O)[C@H](Cc2c[nH]c3ccccc23)NC(=O)[C@H](CCCNC(=N)N)NC(=O)[C@H](CCCNC(=N)N)NC(=O)[C@@H](N)CSSC[C@@H](C(N)=O)NC(=O)[C@H](Cc2ccccc2)NC1=O [Com6, CRRWWRFC-NH2] (H-CRRWWRFC-NH2; disulfide 1-8)	0.9 µM		0.9 µM	3.8 µM	15		remaining at 6.5 h, 5 µM (in vitro): ~50%
-RRWQWR- (cyclo(RRWQWR); SMILES N=C(N)NCCC[C@@H]1NC(=O)[C@H](CCCNC(=N)N)NC(=O)[C@H](Cc2c[nH]c3ccccc23)NC(=O)[C@H](CCC(N)=O)NC(=O)[C@H](Cc2c[nH]c3ccccc23)NC(=O)[C@H](CCCNC(=N)N)NC1=O)						Single Cut, 75 min	
Ac-RRWQWR-NH2						CH3CO-RRWQ, 75 min; also recorded: CH3CO-RRW, 75 min	
-RRWQWRMKKLG- (cyclo(RRWQWRMKKLG); SMILES CSCC[C@@H]1NC(=O)[C@H](CCCNC(=N)N)NC(=O)[C@H](Cc2c[nH]c3ccccc23)NC(=O)[C@H](CCC(N)=O)NC(=O)[C@H](Cc2c[nH]c3ccccc23)NC(=O)[C@H](CCCNC(=N)N)NC(=O)[C@H](CCCNC(=N)N)NC(=O)CNC(=O)[C@H](CC(C)C)NC(=O)[C@H](CCCCN)NC(=O)[C@H](CCCCN)NC1=O)						Single Cut, 75 min	
RRWQWRMKKLG						RWQWRM, 75 min; also recorded: WQWRM, 75 min	
CC(=O)N[C@@H](CCCNC(=N)N)C(=O)N[C@@H](CCCNC(=N)N)C(=O)N[C@@H](Cc1c[nH]c2ccccc12)C(=O)N[C@@H](Cc1c[nH]c2ccccc12)C(=O)N[C@@H](CCCNC(=N)N)C(=O)N[C@@H](Cc1ccccc1)C(N)=O [Com4, CH3CO-RRWWRF-NH2] (Ac-RRWWRF-NH2)	7.5 µM	~90 min	0.9 µM	7.5 µM			affinity for negatively charged membranes [4]: micromolar affinity
